According to patent US20260284166A1, “NOVEL TUMOR ANTIGENS FOR MELANOMA AND USES THEREOF” (UNIVERSITÉ DE MONTRÉAL, priority 2023, published 2026):
“Also recorded” adds a separate entry of the source.

Tested on: CD8+ T cells from healthy donor PBMCs
Test: Functional expansion of specific T cells (FEST) assay
Format: cell-based, human
Conditions: in vitro stimulation of healthy donor T cells with 1 μg/mL peptide, harvested day 20; TCR Vβ CDR3 sequencing of CD8+ cells
Text: aeTSA selection for Immunogenicity assay. Melanoma aeTSAs to be tested in T cell-based immunogenicity assays were selected based on the following criteria: 1) complete loss of expression (RPHM) on-therapy in at least one responder from the Riaz et al.^8 cohort capable to present the respective aeTSAs (at least one HLA allele with rank elution <2% in NetMHCpan4.1b^5), 2) elevated mean expression in TCGA-SKCM, 3) the HLA allotype presenting the aeTSA (HLA-A*02:01 or HLA-B*68:01 shared by the melanoma samples and PBMCs donors), 4) the aeTSA biotype (25% canonical, 75% non-canonical), 5) novel MAP status.
T cells were cultured as previously described^9, with minor modifications. Briefly, on day 0, thawed PBMCs from D36 (Miltenyi Biotec) were T cell-enriched using the Human Pan T cell isolation kit (Miltenyi Biotec). T cells were resuspended at 2×10^6/mL in AIM V media supplemented with 50 μg/mL gentamicin (ThermoFisher Scientific) and 1% HEPES. The T cell-negative fraction was irradiated at 30 Gγ, washed, and resuspended at 2×10^6/mL in AIM V media supplemented with 50 μg/mL gentamicin and 1% HEPES. 2.5 ml per well of both T cells and irradiated T cell-depleted cells were added to a 12-well plate, along with each peptide (GLS Biochem) (1 μg/mL final concentration) or without peptide. Cells were cultured for 10 days at 37° C., 5% CO2. On day 3 and 7, half the culture media was replaced with fresh culture media containing 100 IU/mL IL-2, 50 ng/mL IL-7, and 50 ng/mL IL-15 (day 3) and 200 IU/mL IL-2, 50 ng/mL IL-7, and 50 ng/mL IL-15 (day 7). On day 10, thawed PBMCs from the same donor were used to generate a new batch of T cell-depleted cells. These cells were irradiated at 30 Gγ and loaded with […] of relevant peptide or without peptide during 2 h at 37° C. These cells were washed and added to cultures at a 1:1 T cell:non-T cell ratio. […] On day 20, cells were harvested to perform FEST assays.
For FEST assays, CD8^+ cells were further isolated using the Human CD8^+ T Cell Isolation Kit (Miltenyi Biotec). […]

Row | Sequence | Amino acid sequences of the CDR3 of the TCRβ chain of the clonotypes expanded
1 | GVDDLVFRR [SEQ ID NO: 64] | CASSPDPEGGEQYF; also recorded: CASSLQGHGYTF; also recorded: CASNVARTGGDISGDYEQYF; also recorded: CASSLGLAGSYEQYF; also recorded: CASSDSSYNSPLHF
2 | AAAGVSSTK [SEQ ID NO: 73] | CASSPTNTYEQYF; also recorded: CASHPAGADMNTEAFF; also recorded: CASSLAGRETQYF; also recorded: CASSVWGEPYNEQFF; also recorded: CASSRTDSYEQYF; also recorded: CASSLQGANGYTF
3 | HTLPALSRR [SEQ ID NO: 66] | CASSFQGLNTEAFF (SEQ ID NO: 1103); also recorded: CASSPGQGNEKLFF (SEQ ID NO: 1104); also recorded: CASSLGSGYEQYF (SEQ ID NO: 1105); also recorded: CASSLGLYNEQFF (SEQ ID NO: 1106); also recorded: CASSPGTDYNEQFF (SEQ ID NO: 1107); also recorded: CATRPGAIRGYTF (SEQ ID NO: 1108); also recorded: CASSLIGGADTEAFF (SEQ ID NO: 1109)
